Consider 15 compounds from PubChem BioAssay (NCI).

Assay in all cases: growth of human tumour cells (NCI), 48 h
Experiment [1] deals with EKVX NSCLC.
The test system of experiment [2] is MCF7 breast.
Experiment [3] relates to SNB-75 CNS.
The subject of experiment [4] is ACHN renal.
Experiment [5] relates to IGROV1 ovarian.
Experiment [6] has as its system NCI-H522 lung.
In experiment [7] the test system is UACC-62 melanoma.
For experiment [8], the system named is HCT-15 colon.
In experiment [9] the test system is SF-295 CNS.
Experiment [10] has as its system SR leukemia.

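A five-concentration, 48-hour dose response in 96-well plates underlies each endpoint, interpolated linearly between surrounding concentrations. GI50 is the concentration that inhibits growth by half. Definition used: TGI = concentration required for complete inhibition of growth.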

As to `CCCCc1ccc2nc(NC(=O)OC)[nH]c2c1`, the GI50 in [1] is 0.855 µM; in experiment [2] it was 0.0343 µM; in experiment [3], 0.0257 µM; in experiment [4], 0.077 µM; in [5] it was 0.101 µM; in experiment [6], 0.0612 µM. The GI50 in experiment [7] was 0.0451 µM; in experiment [8] it was 0.0434 µM; in [9], 0.0299 µM. The TGI in experiment [1] was over 100 µM; in [2], over 52.1 µM; in [3], 1.18 µM; in experiment [4] it was over 64.4 µM; in experiment [5] it was over 78.7 µM; in [6], over 68.3 µM. For the same compound, the TGI was over 59.1 µM in experiment [7], over 95.2 µM in experiment [8] and 0.475 µM in [9].

Take `Cc1nc2c(cnn2-c2ccnc3c(C(F)(F)F)cccc23)c(=O)o1`: the GI50 in experiment [1], in [2], in experiment [3], in experiment [4], in experiment [5] and in [6] was over 100 µM throughout. Also, the GI50 in experiment [7] was 93.9 µM; in experiment [8], over 100 µM; in experiment [9] it was over 100 µM. Moreover, the TGI in experiment [1], in experiment [2], in experiment [3], in experiment [4], in experiment [5] and in experiment [6] was over 100 µM throughout. Further, the TGI in experiment [7], in experiment [8] and in experiment [9] was over 100 µM throughout.

Regarding `NC(=O)C/C=C/CC(N)=O`, the TGI in experiment [1], in [2], in [3], in experiment [4], in experiment [5] and in [6] was over 100 µM each time. In addition, the TGI in experiment [7], in [8] and in experiment [9] was over 100 µM each time.

Consider `CCN(CC)CCn1c(=N)n(CC(O)c2ccc(Cl)c(Cl)c2)c2ccccc21` (stereo not given), for which the GI50 in experiment [2] is 2.83 µM; in experiment [3], 10.6 µM; in [4] it was 11.9 µM; in experiment [5], 5.87 µM; in experiment [10] it was 2.12 µM; in [7], 1.94 µM. The GI50 is 4.02 µM in experiment [8] and 8.87 µM in experiment [9]. Besides, the TGI in experiment [2] is 8.56 µM; in experiment [3], 23.8 µM; in experiment [4], 24.4 µM; in experiment [5], 20.6 µM; in experiment [10] it was 5.56 µM; in experiment [7] it was 3.89 µM. The TGI in experiment [8] turned out to be 15.1 µM; in [9], 24.1 µM.

For the compound `C1=C[C@@H]2c3ccc4cnccc4c3NC[C@@H]2C1`, the TGI in [1], in experiment [2], in experiment [3], in [4], in experiment [5] and in experiment [10] was over 100 µM in each case. Moreover, the TGI in experiment [7], in [8] and in [9] was over 100 µM in each case.

Regarding `CCN(CC)CCN(C)CC(C)(C)C(=O)/C=C/c1ccccc1`, the TGI was 26.1 µM in experiment [1]; 18.3 µM in experiment [3]; 26.5 µM in experiment [4]; 36.5 µM in experiment [5]; 45.5 µM in experiment [10]; 21.4 µM in experiment [6]. Further, the TGI in experiment [7] worked out at 26.9 µM; in experiment [8] it was 28.4 µM; in experiment [9] it was 29.4 µM.

On to `CC(C)Oc1cc(OCC(=O)O)cc(C(=O)N(CCC(N)=O)C(=O)Nc2ccc(C(=O)O)cc2OC(C)C)c1`, for which the GI50 in experiment [2], in [3], in [4], in experiment [5], in experiment [10] and in experiment [6] was over 100 µM throughout. The GI50 in [7], in experiment [8] and in experiment [9] was over 100 µM in each case. The TGI in experiment [2], in experiment [3], in experiment [4], in [5], in experiment [10] and in [6] was over 100 µM each time. Besides, the TGI in experiment [7], in experiment [8] and in [9] was over 100 µM in each case.

Turning to `O=c1ccc2nc(-c3ccccc3)nn(-c3ccccc3)c-2c1`, the GI50 in [2] was 1.11 µM; in experiment [3], 4.83 µM; in experiment [4], 0.47 µM; in [5], 1.42 µM; in [10], 0.309 µM; in experiment [6], 0.462 µM. In addition, the GI50 was 1.84 µM in [7], 0.775 µM in [8] and 13 µM in experiment [9]. Further, the TGI in experiment [2] was 2.74 µM; in experiment [3], 11.3 µM; in experiment [4] it was 1.44 µM; in experiment [5] it was 3.47 µM; in [10], 1.52 µM; in [6], 0.918 µM. Besides, the TGI in experiment [7] was found to be 4.13 µM; in [8], 2.43 µM; in experiment [9], 32.1 µM.

With `CC[C@]1(O)C[C@@H]2CN(Cc3c([nH]c4ccccc34)[C@@](C(=O)OC)(c3cc4c(cc3OC)N(C)[C@H]3[C@@](O)(C(=O)OC)[C@H](OC(C)=O)[C@]5(CC)[C@@H]6C[C@@H]6CN6CC[C@]43[C@@H]65)C2)C1`, the GI50 in [2] was 0.0181 µM; in experiment [3] it was 0.0393 µM; in [4], 3.38 µM; in [5], 0.452 µM; in experiment [10], 0.0174 µM; in experiment [6] it was 0.0105 µM. For the same compound, the figures for the GI50 in experiment [7], in experiment [8] and in experiment [9] were 0.0578 µM, 2.78 µM and 0.137 µM, respectively. For the same compound, the TGI was over 4.38 µM in [2]; over 4.38 µM in experiment [3]; over 4.38 µM in experiment [4]; over 4.38 µM in experiment [5]; over 4.38 µM in experiment [10]; 0.0947 µM in experiment [6]. Further, the TGI in experiment [7], in experiment [8] and in experiment [9] was over 4.38 µM each time.

On to `O=c1[nH]nc(-c2ccccc2)c(-c2ccccc2)c1-n1nc(-c2ccccc2)c2ccccc2c1=O`, for which the TGI in [1], in experiment [3], in [4], in experiment [5], in [10] and in experiment [6] was over 100 µM each time. Also, the TGI in [7], in [8] and in experiment [9] was over 100 µM each time.

Take `COc1ccc(CCNc2nc3ccccc3c3[nH]c4ccccc4c23)cc1OC`: the GI50 in experiment [1] is 22.6 µM; in experiment [2], 2.2 µM; in experiment [3], 14.3 µM; in experiment [4], 3.91 µM; in experiment [10], 2.32 µM; in experiment [7], 13 µM. Also, the GI50 in [8] was 2.86 µM; in experiment [9] it was 2.55 µM. In addition, the TGI was determined as 45.3 µM in experiment [1]; 5.32 µM in [2]; 28.4 µM in experiment [3]; 17.1 µM in experiment [4]; 7.93 µM in [10]; 26.6 µM in experiment [7]. In addition, the TGI in experiment [8] is 10.4 µM; in [9] it was 9.02 µM.

As for `CCC12C=CCN3CC[C@]4(C(=C(C(=O)OC)[C@@H]1Nc1ncnc5c1ncn5C1OC(COC(C)=O)C(OC(C)=O)C1OC(C)=O)Nc1ccccc14)C32` (stereo not given in full), the TGI in experiment [1] was 16.2 µM; in experiment [3] it was 7.03 µM; in experiment [4], 5.69 µM; in experiment [5] it was 7.31 µM; in experiment [10], 6.17 µM; in experiment [6], 3.12 µM. Besides, the TGI in [7] stood at 10.3 µM; in experiment [8], 7.79 µM; in experiment [9] it was 9.67 µM.

Take `CCOC(=O)c1cc2c(n1Cc1cccc(OC)c1)-c1oncc1CC2`: the GI50 in experiment [1] was 9.1 µM; in experiment [2], 0.487 µM; in experiment [3], 0.399 µM; in experiment [4] it was 2.66 µM; in experiment [5], 0.78 µM; in [6], 0.237 µM. Further, the figures for the GI50 in experiment [7], in experiment [8] and in [9] were 0.541 µM, 0.521 µM and 0.433 µM, respectively. The TGI in experiment [1] was over 100 µM; in [2], over 100 µM; in experiment [3], 3.03 µM; in experiment [4] it was over 100 µM; in experiment [5], over 100 µM; in experiment [6], 1.42 µM. Also, the values for the TGI in [7], in experiment [8] and in experiment [9] were over 100 µM, over 100 µM and 49.7 µM, respectively.

With `COC(=O)C1=C(O)C(O)=C(C(=O)OC)CC1`, the TGI in [1], in experiment [3], in experiment [4], in [5], in experiment [10] and in [6] was over 100 µM in each case. In addition, the TGI in experiment [7], in experiment [8] and in [9] was over 100 µM each time.

`COc1ccc([C@H]2c3cc(OC)c(OC)cc3C=C(C=O)C2CO)cc1OC` (stereo not given in full): the GI50 was 5.29 µM in experiment [1]; 3.73 µM in experiment [2]; 7.53 µM in experiment [4]; 2.08 µM in experiment [5]; 4.95 µM in [10]; 4.32 µM in experiment [7]. Moreover, the GI50 in experiment [8] is 5.03 µM; in [9], 1.79 µM. In addition, the TGI in experiment [1] is over 100 µM; in experiment [2] it was over 100 µM; in experiment [4] it was over 100 µM; in experiment [5], 8.89 µM; in [10], over 100 µM; in [7] it was over 100 µM. Moreover, the TGI in experiment [8] was over 100 µM; in [9], 5.85 µM.
